Measurements from ChEMBL document CHEMBL1149978, “Synthesis of adamantane spiro sultones as potential antiviral agents” (Bioorg Med Chem Lett, 1992).
Active and inactive are the calls of the source.

Assays:
[1] = Antiviral activity against measles at concentrations up to 200 ug/mL; NA means Inactive; format: functional
[2] = tested on: Influenza B virus; assay: Antiviral activity against influenza-B at concentrations up to 200 ug/mL; NA means Inactive; format: functional, organism-based
[3] = tested on: Human immunodeficiency virus 2; assay: Antiviral activity against human immunodeficiency virus type 2 (HIV-2) at concentrations up to 200 ug/mL; NA means Inactive; format: functional, organism-based
[4] = tested on: Human respirovirus 3; assay: Antiviral activity against parainfluenza-3 at concentrations up to 200 ug/mL; NA means Inactive; format: functional, organism-based
[5] = Antiviral activity against respiratory syncytial at concentrations up to 200 ug/mL; NA means Inactive; format: functional
[6] = tested on: Human immunodeficiency virus 1; assay: Antiviral activity against human immunodeficiency virus type 1 (HIV-1) at concentrations up to 200 ug/mL; NA means Inactive; format: functional, organism-based
[7] = tested on: Influenza A virus; assay: Antiviral activity against influenza-A at concentrations up to 200 ug/mL; NA means Inactive; format: functional, organism-based

Measured: Activity

O=C1CS(=O)(=O)OC12C1CC3CC(C1)CC2C3 (configuration not stated)
inactive: all assays above

NC1=CS(=O)(=O)OC12C1CC3CC(C1)CC2C3 (configuration not stated)
not listed: [1] | [5]
inactive: all other assays above
